Values after ≈ are worked out from the molar mass of the structure shown.
How the values were obtained:
[1] = target: T1, Nucleotide-binding oligomerization domain-containing protein 1 (Homo sapiens, UniProt Q9Y239); test: Antagonist activity at human NOD1 expressed in HEK-Blue cells assessed as decrease in SEAP secretion incubated for 3 hrs followed by C12-iE-DAP stimulation for 20 hrs by spectrophotometry; assay type: cell-based, HEK-Blue hNOD1
T1 sequence (Q9Y239 whole entry): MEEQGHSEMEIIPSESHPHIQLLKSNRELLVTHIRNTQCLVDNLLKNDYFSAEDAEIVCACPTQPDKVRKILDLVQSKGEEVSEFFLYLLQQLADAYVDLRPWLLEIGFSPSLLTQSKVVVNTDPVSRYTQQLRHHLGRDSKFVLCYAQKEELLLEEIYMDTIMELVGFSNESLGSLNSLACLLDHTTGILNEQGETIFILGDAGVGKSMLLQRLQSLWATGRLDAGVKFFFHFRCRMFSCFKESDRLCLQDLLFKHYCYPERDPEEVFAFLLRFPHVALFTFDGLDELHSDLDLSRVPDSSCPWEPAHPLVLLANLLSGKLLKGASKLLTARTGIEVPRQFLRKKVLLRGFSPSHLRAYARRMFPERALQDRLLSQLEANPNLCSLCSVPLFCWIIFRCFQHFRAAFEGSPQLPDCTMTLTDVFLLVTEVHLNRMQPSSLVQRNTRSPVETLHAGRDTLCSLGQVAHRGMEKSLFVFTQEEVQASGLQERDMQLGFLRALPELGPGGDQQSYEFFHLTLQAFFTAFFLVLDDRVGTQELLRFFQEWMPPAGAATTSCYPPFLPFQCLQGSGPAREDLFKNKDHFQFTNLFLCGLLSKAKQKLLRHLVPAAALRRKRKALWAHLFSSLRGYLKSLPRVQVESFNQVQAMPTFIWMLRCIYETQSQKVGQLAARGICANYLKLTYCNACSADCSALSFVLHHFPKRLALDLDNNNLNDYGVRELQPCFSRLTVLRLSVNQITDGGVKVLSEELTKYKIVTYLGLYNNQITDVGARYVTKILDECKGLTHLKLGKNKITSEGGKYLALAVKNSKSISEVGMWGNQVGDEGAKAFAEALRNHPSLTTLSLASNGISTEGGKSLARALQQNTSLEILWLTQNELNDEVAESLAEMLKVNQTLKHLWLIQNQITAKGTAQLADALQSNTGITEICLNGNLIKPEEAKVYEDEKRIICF

[2] = target: T2, Nucleotide-binding oligomerization domain-containing protein 1 (Mus musculus) (UniProt Q8BHB0); test: Antagonist activity at mouse NOD1 expressed in HEK-Blue cells assessed as decrease in SEAP secretion at 5 uM incubated for 3 hrs followed by C12-iE-DAP stimulation for 20 hrs by spectrophotometry relative to control; assay type: cell-based
T2 sequence (whole entry): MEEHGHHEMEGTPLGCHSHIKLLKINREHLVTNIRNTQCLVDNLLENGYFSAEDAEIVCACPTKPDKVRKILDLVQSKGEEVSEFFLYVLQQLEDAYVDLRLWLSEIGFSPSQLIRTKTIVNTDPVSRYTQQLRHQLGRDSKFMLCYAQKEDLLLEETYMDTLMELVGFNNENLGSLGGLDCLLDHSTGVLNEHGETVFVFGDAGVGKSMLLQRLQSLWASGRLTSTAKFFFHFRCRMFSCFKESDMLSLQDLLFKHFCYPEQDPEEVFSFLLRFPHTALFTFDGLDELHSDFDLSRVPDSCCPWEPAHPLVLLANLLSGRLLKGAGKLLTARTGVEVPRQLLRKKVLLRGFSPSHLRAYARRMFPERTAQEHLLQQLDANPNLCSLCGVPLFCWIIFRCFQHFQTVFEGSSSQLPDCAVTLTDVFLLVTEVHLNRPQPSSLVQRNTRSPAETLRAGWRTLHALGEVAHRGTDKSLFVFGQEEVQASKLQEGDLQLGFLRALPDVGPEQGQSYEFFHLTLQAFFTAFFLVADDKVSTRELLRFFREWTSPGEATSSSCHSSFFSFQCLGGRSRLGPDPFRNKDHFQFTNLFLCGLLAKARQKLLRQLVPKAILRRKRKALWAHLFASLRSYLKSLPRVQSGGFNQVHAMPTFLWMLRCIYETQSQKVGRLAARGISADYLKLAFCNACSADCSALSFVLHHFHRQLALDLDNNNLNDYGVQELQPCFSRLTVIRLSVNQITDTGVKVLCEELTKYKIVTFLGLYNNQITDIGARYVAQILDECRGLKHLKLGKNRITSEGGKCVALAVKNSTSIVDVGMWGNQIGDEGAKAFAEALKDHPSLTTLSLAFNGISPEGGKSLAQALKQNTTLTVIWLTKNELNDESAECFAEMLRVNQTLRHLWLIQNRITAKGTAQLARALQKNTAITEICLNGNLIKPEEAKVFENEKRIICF

[3] = target: T3, Nucleotide-binding oligomerization domain-containing protein 1 (Mus musculus, UniProt Q8BHB0); test: Antagonist activity at mouse NOD1 expressed in HEK-Blue cells assessed as decrease in SEAP secretion incubated for 3 hrs followed by C12-iE-DAP stimulation for 20 hrs by spectrophotometry; assay type: cell-based, HEK-Blue mNOD1
T3 sequence (Q8BHB0 whole entry): T2 sequence (whole entry)

[4] = target: T2, Nucleotide-binding oligomerization domain-containing protein 1 (Mus musculus); test: Antagonist activity at mouse NOD1 expressed in HEK-Blue cells assessed as decrease in SEAP secretion at 1 uM incubated for 3 hrs followed by C12-iE-DAP stimulation for 20 hrs by spectrophotometry relative to control; assay type: cell-based
[5] = Metabolic stability in mouse liver microsomes assessed as half life at 1.25 uM preincubated for 5 mins followed by NADPH addition measured upto 120 mins by LC-MS/MS analysis; assay type: ADME, Microsome; conditions: time < 125 min
[6] = Solubility of compound in phosphate buffer at pH 7.2 to 7.4; assay type: physicochemical
[7] = HEK-Blue mNOD1, filed as antagonist, time 23.0 hrs

| SMILES | IC50 [1] | inhibition ([2]; HEK-Blue mNOD1, time 23.0 hrs) | IC50 [3] | inhibition [4, 7] | also measured |
| --- | --- | --- | --- | --- | --- |
| CC(C)NC(=O)CSc1nc2ccc(Cl)cc2c(=O)n1-c1ccc(Cl)c(NS(=O)(=O)c2ccccc2F)c1 | 25 nM | < 10% |  |  |  |
| O=c1c2cc(Cl)ccc2nc(NCCCN2CCOCC2)n1-c1ccc(Cl)c(NS(=O)(=O)c2ccccc2F)c1 | 32 nM |  |  |  | inhibition [2, 7]: 46.5% |
| O=c1c2ccncc2nc(Cl)n1-c1ccc(Cl)c(NS(=O)(=O)c2cc(F)ccc2F)c1 | 8.4 nM |  | 165 nM | 81.8% |  |
| Nc1ccc(Cl)cc1C(=O)Nc1ccc(Cl)c(NS(=O)(=O)c2ccccc2F)c1 |  | 32.9% |  |  |  |
| Cn1cc(S(=O)(=O)Nc2cc(-n3c(Cl)nc4cnc(Cl)cc4c3=O)ccc2Cl)cn1 | 3.1 nM |  | 267 nM | 77.6% |  |
| CCOC(=O)c1nc2ccc(Cl)cc2c(=O)n1-c1ccc(Cl)c(NS(=O)(=O)c2ccccc2F)c1 |  | 11.4% |  |  |  |
| N#Cc1ccccc1S(=O)(=O)Nc1cc(-n2c(Cl)nc3cnc(Cl)cc3c2=O)ccc1Cl | 1.2 nM |  | 121 nM | 86.3% |  |
| O=c1c2cc(Cl)ccc2nc(C(F)(F)F)n1-c1ccc(Cl)c(NS(=O)(=O)c2ccccc2F)c1 | 68 nM |  | 5900 nM |  | inhibition [2, 7]: 73.2% |
| O=C(CSc1nc2ccc(Cl)cc2c(=O)n1-c1ccc(Cl)c(NS(=O)(=O)c2ccccc2F)c1)Nc1ccccc1 | 44 nM | < 10% |  |  |  |
| O=c1c2cc(Br)ccc2nc(Cl)n1-c1ccc(Cl)c(NS(=O)(=O)c2ccccc2F)c1 | 18 nM |  |  | 40.5% |  |
| CS(=O)(=O)c1ccc2nc(Cl)n(-c3ccc(Cl)c(NS(=O)(=O)c4ccccc4F)c3)c(=O)c2c1 | 4.4 nM |  | 110 nM | 88.9% |  |
| O=c1c2cc(Cl)ccc2nc(SCCOc2ccc(F)cc2)n1-c1ccc(Cl)c(NS(=O)(=O)c2ccccc2F)c1 | 746 nM | < 10% |  |  |  |
| O=c1c2cc([N+](=O)[O-])ccc2nc(Cl)n1-c1ccc(Cl)c(NS(=O)(=O)c2ccccc2F)c1 | 9.1 nM |  | 860 nM | 52.1% |  |
| Cc1nc2ccc(Cl)cc2c(=O)n1-c1ccc(Cl)c(S(=O)(=O)Nc2ccccc2F)c1 |  | 21.1% |  |  |  |
| O=c1c2cc(Cl)ccc2nc(Cl)n1-c1ccc(Cl)c(NS(=O)(=O)c2ccccc2F)c1 | 40 nM |  | 2630 nM | 42.7% | inhibition [2, 7]: 67.4% |
| CC(=O)Nc1ccc(Cl)c(NS(=O)(=O)c2ccccc2F)c1 |  | < 10% |  |  |  |

| SMILES | IC50 [1] | inhibition ([2]; HEK-Blue mNOD1, time 23.0 hrs) | IC50 [3] | inhibition [4, 7] | also measured |
| --- | --- | --- | --- | --- | --- |
| O=c1c2ccncc2nc(Cl)n1-c1ccc(Cl)c(NS(=O)(=O)c2cc(F)c(F)cc2F)c1 | 7.5 nM |  | 159 nM | 81.8% |  |
| Cc1nc2ccc(Cl)cc2c(=O)n1-c1ccc(Cl)c(C(=O)O)c1 |  | < 10% |  |  |  |
| Cc1nc2ccc(Cl)cc2c(=O)n1-c1ccc(Cl)c(NC(=O)c2ccccc2F)c1 |  | < 10% |  |  |  |
| CS(=O)(=O)c1ccc2nc(Cl)n(-c3ccc(Cl)c(NS(=O)(=O)c4ccccc4C#N)c3)c(=O)c2c1 |  |  | 66 nM |  | half-life at 1.25 µM [5]: 20.6 min; solubility [6]: 34.2 µg/mL (≈ 62.2 µM) |
| Cc1nc2ccc(Cl)cc2c(=O)n1-c1ccc(Cl)c(N2Cc3ccccc3S2(=O)=O)c1 | 11200 nM | 14.5% |  |  |  |
| O=c1c2cc(Cl)ncc2nc(Cl)n1-c1ccc(Cl)c(NS(=O)(=O)c2c(F)cccc2F)c1 | 1.3 nM |  | 67 nM | 87.5% |  |
| Cc1nc2ccc(Cl)cc2c(=O)n1-c1ccc(Cl)c(N)c1 |  | < 10% |  |  |  |
| Cc1nc2ccc(Cl)cc2c(=O)n1NS(=O)(=O)c1ccc(Cl)cc1 |  | < 10% |  |  |  |
| Nc1nc2ccc(Cl)cc2c(=O)n1-c1ccc(Cl)c(NS(=O)(=O)c2ccccc2F)c1 | 44 nM | 27.3% |  |  |  |
| NC(=O)c1nc2ccc(Cl)cc2c(=O)n1-c1ccc(Cl)c(NS(=O)(=O)c2ccccc2F)c1 |  |  |  |  | inhibition [2, 7]: 48.2% |
| O=c1c2cc(Cl)ncc2nc(Cl)n1-c1ccc(Cl)c(NS(=O)(=O)N2CCCCC2)c1 | 126 nM |  |  |  | inhibition ([4]; HEK-Blue mNOD1, time 23.0 hrs): 28.7% |
| N#Cc1ccc2nc(Cl)n(-c3ccc(Cl)c(NS(=O)(=O)c4ccccc4F)c3)c(=O)c2c1 | 9.7 nM |  | 117 nM | 83.6% |  |
| C=CC(=O)Nc1nc2ccc(Cl)cc2c(=O)n1-c1ccc(Cl)c(NS(=O)(=O)c2ccccc2F)c1 | 27 nM |  | 7210 nM |  | inhibition [2, 7]: 53.3% |
| Cc1nc2ccc(Cl)cc2c(=O)n1CCCNS(=O)(=O)c1ccccc1F |  | < 10% |  |  |  |
| Cc1nc2ccc(Cl)cc2c(=O)n1-c1ccc(Cl)c(C(=O)N2Cc3ccccc3S2(=O)=O)c1 |  | < 10% |  |  |  |

Reference: ChEMBL document CHEMBL6074678, “Selectively Antagonizing the NOD1-Mediated Inflammatory Signaling Pathway Mitigates the Gastric Inflammation Induced by Helicobacter pylori Infection” (J Med Chem, 2024)
